ChEMBL document CHEMBL1201862, “PubChem BioAssay data set” (2004)
The source made the active and inactive calls.

Experiments:
[1] = Luminescent dose response cell-based high throughput screening assay for inhibitors of the Janus kinase 2 mutant JAK2V617F. [Related pubchem assays: 1446 (Primary screen.), 1521 (Confirmation assay.), 1486 (Counter screen.)]; assay type: functional
[2] = target: T1, Microphthalmia-associated transcription factor (Homo sapiens, UniProt O75030); test: reducers of TRPM1 reporter luminescence, concentration series – cell-based, SK-MEL-5, cherry-picked, set 3, MITF inhibitor project, dose response (AID 493073); assay type: functional;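 also: SK-MEL-5 melanoma cells with luciferase driven by the MITF target TRPM1 promoter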
T1 sequence (O75030 whole entry): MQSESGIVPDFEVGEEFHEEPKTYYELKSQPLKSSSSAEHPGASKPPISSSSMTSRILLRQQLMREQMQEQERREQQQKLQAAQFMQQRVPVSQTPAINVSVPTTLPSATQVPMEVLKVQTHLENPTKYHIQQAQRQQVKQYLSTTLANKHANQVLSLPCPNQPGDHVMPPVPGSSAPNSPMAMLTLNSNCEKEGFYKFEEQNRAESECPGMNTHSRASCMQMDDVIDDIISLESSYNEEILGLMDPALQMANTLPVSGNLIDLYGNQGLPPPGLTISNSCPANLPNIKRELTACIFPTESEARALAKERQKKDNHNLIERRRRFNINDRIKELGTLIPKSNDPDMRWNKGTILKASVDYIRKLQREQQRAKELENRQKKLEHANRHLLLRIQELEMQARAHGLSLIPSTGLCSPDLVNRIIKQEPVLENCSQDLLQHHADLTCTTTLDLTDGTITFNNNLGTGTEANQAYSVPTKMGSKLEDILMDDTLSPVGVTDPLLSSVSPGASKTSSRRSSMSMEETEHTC

INS1 = test: INS-1E survival protection against cytokine death – cell-based, luminescence, retest, dose response (AID 449756); assay type: functional; settings: Rattus norvegicus;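 also: cell death triggered by IL-1 beta plus TNF-alpha plus IFN-gamma mixture; protective hits raise ATP signal compared with cytokine alone wells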
A-375 = test: proliferation inhibition in MITF-low A375 cells – cell-based, cherry-pick samples, set 2, counter-screen for MITF modulator project, dose response (AID 540335); assay type: functional; settings: Homo sapiens
[3] = reduction of Shn3 3'UTR-driven luciferase in osteoblasts – cell-based, Clone20 osteoblasts, firefly luciferase, cherry-picked, dose response (AID 624132); assay type: functional;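 also: firefly luciferase luminescence from reporter carrying the Shn3 3'UTR in osteoblasts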
[4] = target: T2, Apoptotic protease-activating factor 1 (Homo sapiens, UniProt O14727); assay type: functional
T2 sequence (O14727 whole entry): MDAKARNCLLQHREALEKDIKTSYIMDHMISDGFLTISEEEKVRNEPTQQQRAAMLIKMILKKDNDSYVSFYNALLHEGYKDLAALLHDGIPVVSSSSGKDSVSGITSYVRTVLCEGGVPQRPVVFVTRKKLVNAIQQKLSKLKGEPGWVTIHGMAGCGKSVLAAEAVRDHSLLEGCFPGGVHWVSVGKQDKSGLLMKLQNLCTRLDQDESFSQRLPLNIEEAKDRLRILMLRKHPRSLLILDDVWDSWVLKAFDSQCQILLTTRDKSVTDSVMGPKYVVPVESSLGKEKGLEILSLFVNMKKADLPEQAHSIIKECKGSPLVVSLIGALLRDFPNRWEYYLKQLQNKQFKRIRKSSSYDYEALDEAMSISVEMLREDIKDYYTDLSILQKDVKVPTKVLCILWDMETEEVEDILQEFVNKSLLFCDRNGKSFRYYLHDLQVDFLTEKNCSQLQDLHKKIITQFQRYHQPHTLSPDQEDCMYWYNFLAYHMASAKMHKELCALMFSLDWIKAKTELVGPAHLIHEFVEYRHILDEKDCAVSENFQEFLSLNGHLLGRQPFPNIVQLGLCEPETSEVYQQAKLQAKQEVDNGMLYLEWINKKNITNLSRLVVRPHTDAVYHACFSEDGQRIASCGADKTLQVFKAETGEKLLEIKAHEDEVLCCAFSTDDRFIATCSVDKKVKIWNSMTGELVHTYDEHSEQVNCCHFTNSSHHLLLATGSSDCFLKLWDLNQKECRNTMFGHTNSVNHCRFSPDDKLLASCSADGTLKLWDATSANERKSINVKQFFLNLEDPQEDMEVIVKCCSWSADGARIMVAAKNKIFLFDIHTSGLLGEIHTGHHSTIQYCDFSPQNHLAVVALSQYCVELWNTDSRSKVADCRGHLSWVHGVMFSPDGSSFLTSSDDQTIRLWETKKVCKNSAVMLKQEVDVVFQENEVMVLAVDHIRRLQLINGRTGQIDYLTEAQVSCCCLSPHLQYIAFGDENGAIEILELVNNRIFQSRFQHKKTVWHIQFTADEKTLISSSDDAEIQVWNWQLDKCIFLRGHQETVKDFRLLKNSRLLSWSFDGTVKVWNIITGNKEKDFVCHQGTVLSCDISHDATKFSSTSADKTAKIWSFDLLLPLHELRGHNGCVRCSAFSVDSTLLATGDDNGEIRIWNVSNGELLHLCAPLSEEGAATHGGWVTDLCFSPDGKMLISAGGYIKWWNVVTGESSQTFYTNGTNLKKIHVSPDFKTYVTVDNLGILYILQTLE

[5] = non-specific 3'UTR reporter inhibition in Clone20-Shn3RL – cell-based, Renilla luciferase, cherry-picked, counter-screen for Shn3 inhibitor project, dose response (AID 624133); assay type: functional
[6] = target: Peroxisome proliferator-activated receptor gamma/Nuclear receptor coactivator 3 (Homo sapiens, UniProt P37231); test: TR-FRET dose response biochemical High Throughput Screening assay for agonists of the steroid receptor coactivator 3 (SRC-3) recruitment by the peroxisome proliferator-activated receptor gamma (PPAR gamma): non-selective agonists. [Related pubchem assays: 1301 (Confirmation screen.), 1048 (Primary screen.)]; assay type: functional
[7] = target: Peroxisome proliferator-activated receptor gamma/Nuclear receptor coactivator 2 (Homo sapiens, UniProt P37231); test: TR-FRET dose response biochemical High Throughput Screening assay for agonists of the steroid receptor coactivator 2 (SRC-2) recruitment by the peroxisome proliferator-activated receptor gamma (PPAR gamma): non-selective agonists. [Related pubchem assays: 1297, 1032 ]; assay type: functional
[8] = target: Peroxisome proliferator-activated receptor gamma/Nuclear receptor coactivator 1 (Homo sapiens, UniProt P37231); test: TR-FRET dose response biochemical High Throughput Screening assay for agonists of the steroid receptor coactivator 1 (SRC-1) recruitment by the peroxisome proliferator-activated receptor gamma (PPAR gamma): non-selective agonists. [Related pubchem assays (depositor defined):AID1300, AID1808, AID504735, AID631]; assay type: protein assay
Cytochrome P450 3A4 = Cytochrome P450 3A4 (Homo sapiens, UniProt P08684);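 also: CYP3A4 tested as one member of a cytochrome P450 panel screen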
Escherichia coli [9] = test: microbe, parasite or virus in culture
Escherichia coli [10] = test: microbe, parasite or virus in culture; remark: listed apart in the source
[11] = target: Voltage-dependent T-type calcium channel subunit alpha-1H (Homo sapiens, UniProt O95180); assay type: functional;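 also: channel activity triggered by adding a high calcium stimulation buffer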
HEK293 [12] = test: cells; assay type: functional, cell-based; settings: Homo sapiens
HEK293 [13] = test: cells; assay type: functional, cell-based; settings: Homo sapiens; remark: listed apart in the source
[14] = target: Nucleotide-binding oligomerization domain-containing protein 2 (Homo sapiens, UniProt Q9HC29); test: inhibition of NOD2-driven NF-kB reporter – cell-based, luminescence, uHTS, HEK293 (AID 1566); assay type: functional
HEK293 [15] = test: NOD2 signaling inhibitors in MDP-stimulated cells, cell-based, uHTS, luminescence (AID 2001); assay type: functional; settings: Homo sapiens
HEK293 [16] = test: cells; assay type: functional, cell-based; settings: Homo sapiens; remark: listed apart in the source
HEK293 [17] = test: inhibition of NOD1-driven NF-kB reporter – cell-based, luminescence, uHTS, primary screen (AID 1578); assay type: functional; settings: Homo sapiens
[18] = target: Beta-2 adrenergic receptor (Homo sapiens, UniProt P07550); test: ADRB2 activation measured by internalization – cell-based, FAP fluorogen, flow cytometry, cherry pick 1, dose response (AID 588763); assay type: functional
Cytochrome P450 2D6 = Cytochrome P450 2D6 (Homo sapiens, UniProt P10635);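 also: CYP2D6 member of a cytochrome P450 panel assay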
Vero [19] = test: cells; assay type: functional; settings: Chlorocebus sabaeus
Vero [20] = test: cells; assay type: functional, cell-based; settings: Chlorocebus sabaeus
Beta-galactosidase = Beta-galactosidase (Escherichia coli, UniProt Q8VNN2); test: detection-enzyme interference by beta-gal modulators – biochemical, E. coli enzyme, set 3, artefact control for CCR6 antagonist project, dose response (AID 504712); assay type: functional
[21] = NIH3T3 cell viability loss – ATP luminescence, mouse fibroblasts, counter-screen, dose response (AID 2010); assay type: functional, cell-based;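 also: cells exposed to compound for about 90 hours before reading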
[22] = viability of PTEN-deleted HCT116 cells – cell-based, HCT116 PTEN knockout, dose response (AID 1047); assay type: functional;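 also: HCT116 colon tumor cells with PTEN knocked out; cells exposed to compound for 60 hours before readout; potency for loss of cell viability measured by luminescence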
[23] = Trypanosoma cruzi growth suppression in host cells – NIH3T3 host cells, beta-gal luminescence, confirmation (AID 2044); assay type: functional, cell-based;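 also: intracellular parasites grown in NIH/3T3 mouse fibroblasts as host cells; luminescent beta-galactosidase reporter signal from transgenic T. cruzi replicating inside host cells; inhibitors lower the luminescence signal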
[24] = fluconazole-exposed Candida albicans growth modulators – fluorescence, retest, confirmation (AID 2467); assay type: functional, cell-based
[25] = viability of HCT116 lacking mutant beta-catenin – cell-based, human colon tumor, dose response (AID 1045); assay type: functional;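 also: HCT116 colon tumor cells with beta catenin knocked out; cells exposed to compound for 60 hours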
Bcl-2-related protein A1 = target: T3, Bcl-2-related protein A1 (Mus musculus, UniProt Q07440); assay type: functional;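 also: confirmatory dose–response counterscreen on Bfl-1, used to check hits from a UBC13 polyubiquitin inhibitor campaign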
T3 sequence (Q07440 whole entry): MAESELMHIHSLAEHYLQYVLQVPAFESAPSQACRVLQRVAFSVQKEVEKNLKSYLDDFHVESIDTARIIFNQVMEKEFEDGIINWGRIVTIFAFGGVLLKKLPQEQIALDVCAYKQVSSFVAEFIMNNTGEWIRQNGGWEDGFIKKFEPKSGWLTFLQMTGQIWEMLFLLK

[26] = NIH-3T3 fibroblast cytotoxicity, dose response, cytotoxicity control, cell-based, fluorescence, Alamar Blue, secondary assay (AID 2327); assay type: functional;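 also: NIH-3T3 mouse fibroblasts cultured with fluconazole at 8 µg/mL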
[27] = target: T4, Ubiquitin-conjugating enzyme E2 N (Homo sapiens, UniProt P61088); assay type: functional
T4 sequence (P61088 whole entry): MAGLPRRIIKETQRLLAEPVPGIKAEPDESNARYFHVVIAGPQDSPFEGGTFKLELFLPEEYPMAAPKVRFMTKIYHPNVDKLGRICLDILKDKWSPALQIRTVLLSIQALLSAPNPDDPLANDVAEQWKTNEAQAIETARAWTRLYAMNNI

[28] = target: T4, Ubiquitin-conjugating enzyme E2 N; assay type: functional; remark: listed apart in the source
cells [29] = assay type: functional, cell-based
[30] = Luminescence Cell-Based Dose Response HTS to Identify Inhibitors of 5'UTR Stem-Loop Driven Prion Protein mRNA Translation in H4 Neuroglioblastoma Cells. [Related pubchem assays: 1827 (Project Summary), 1813 (Primary HTS)]; assay type: functional
[31] = alpha-synuclein stem-loop luciferase translation blockers – H4 neuroglioma cells, luminescence, confirmation (AID 1988); assay type: functional, cell-based
[32] = luciferase reporter signal suppression in cells – H4 neuroglioma cells, luminescence, dose response (AID 1990); assay type: functional, cell-based
cells [33] = assay type: functional, cell-based; remark: listed apart in the source

Chain of Peroxisome proliferator-activated receptor gamma/Nuclear receptor coactivator 3 (P37231 whole entry): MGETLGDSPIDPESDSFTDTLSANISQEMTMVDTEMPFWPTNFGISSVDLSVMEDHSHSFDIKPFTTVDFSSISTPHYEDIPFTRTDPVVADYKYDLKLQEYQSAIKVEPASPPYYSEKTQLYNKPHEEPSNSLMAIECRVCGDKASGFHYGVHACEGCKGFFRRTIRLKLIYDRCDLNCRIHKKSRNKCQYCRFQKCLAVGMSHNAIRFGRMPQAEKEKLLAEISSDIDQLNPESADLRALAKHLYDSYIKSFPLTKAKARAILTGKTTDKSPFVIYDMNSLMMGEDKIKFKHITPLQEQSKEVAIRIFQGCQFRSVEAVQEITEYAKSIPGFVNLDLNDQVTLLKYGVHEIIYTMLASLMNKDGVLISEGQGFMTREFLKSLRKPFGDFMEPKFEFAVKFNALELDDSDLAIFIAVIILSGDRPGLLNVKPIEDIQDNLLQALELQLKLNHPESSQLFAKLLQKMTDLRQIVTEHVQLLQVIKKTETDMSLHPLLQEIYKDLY
Chain of Peroxisome proliferator-activated receptor gamma/Nuclear receptor coactivator 3 (Q9Y6Q9 whole entry, further chain): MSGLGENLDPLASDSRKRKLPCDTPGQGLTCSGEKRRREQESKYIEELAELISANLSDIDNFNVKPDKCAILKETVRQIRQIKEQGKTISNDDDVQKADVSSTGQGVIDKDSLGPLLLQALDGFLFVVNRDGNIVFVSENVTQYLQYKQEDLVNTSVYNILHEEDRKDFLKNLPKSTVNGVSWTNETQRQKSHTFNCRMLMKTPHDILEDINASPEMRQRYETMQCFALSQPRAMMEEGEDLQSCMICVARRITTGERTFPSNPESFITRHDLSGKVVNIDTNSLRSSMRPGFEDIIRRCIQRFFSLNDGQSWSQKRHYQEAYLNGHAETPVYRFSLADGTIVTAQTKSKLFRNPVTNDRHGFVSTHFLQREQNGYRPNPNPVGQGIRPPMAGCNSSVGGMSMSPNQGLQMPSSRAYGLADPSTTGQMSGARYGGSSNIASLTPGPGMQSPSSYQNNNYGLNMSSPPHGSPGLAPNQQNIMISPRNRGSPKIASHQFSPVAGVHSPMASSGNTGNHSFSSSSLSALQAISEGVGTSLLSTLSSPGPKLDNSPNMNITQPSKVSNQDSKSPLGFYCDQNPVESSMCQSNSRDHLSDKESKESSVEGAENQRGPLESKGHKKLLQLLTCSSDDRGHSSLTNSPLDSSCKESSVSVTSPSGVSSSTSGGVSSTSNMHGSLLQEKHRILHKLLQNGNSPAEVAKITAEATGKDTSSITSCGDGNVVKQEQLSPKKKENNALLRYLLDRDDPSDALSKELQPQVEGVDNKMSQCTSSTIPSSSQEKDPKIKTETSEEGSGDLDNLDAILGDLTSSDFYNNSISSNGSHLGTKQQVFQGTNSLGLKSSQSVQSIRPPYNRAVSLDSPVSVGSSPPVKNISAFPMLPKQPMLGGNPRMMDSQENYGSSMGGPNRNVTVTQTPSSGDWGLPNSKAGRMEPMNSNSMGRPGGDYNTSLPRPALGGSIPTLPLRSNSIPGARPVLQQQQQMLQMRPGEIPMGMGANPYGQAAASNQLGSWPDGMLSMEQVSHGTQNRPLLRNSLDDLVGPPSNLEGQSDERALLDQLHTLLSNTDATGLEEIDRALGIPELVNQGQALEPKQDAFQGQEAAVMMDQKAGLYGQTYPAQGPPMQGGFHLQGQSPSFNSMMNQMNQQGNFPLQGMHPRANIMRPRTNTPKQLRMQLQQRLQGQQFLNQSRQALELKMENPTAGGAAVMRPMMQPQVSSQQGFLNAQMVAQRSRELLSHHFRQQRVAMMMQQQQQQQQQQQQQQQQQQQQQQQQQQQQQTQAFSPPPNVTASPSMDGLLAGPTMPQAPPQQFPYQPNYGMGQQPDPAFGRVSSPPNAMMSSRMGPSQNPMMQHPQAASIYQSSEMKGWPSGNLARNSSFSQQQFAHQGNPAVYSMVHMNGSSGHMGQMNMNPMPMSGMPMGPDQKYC
Chain of Peroxisome proliferator-activated receptor gamma/Nuclear receptor coactivator 2 (P37231 whole entry): as the sequence (P37231 whole entry) above
Chain of Peroxisome proliferator-activated receptor gamma/Nuclear receptor coactivator 2 (Q15596 whole entry, further chain): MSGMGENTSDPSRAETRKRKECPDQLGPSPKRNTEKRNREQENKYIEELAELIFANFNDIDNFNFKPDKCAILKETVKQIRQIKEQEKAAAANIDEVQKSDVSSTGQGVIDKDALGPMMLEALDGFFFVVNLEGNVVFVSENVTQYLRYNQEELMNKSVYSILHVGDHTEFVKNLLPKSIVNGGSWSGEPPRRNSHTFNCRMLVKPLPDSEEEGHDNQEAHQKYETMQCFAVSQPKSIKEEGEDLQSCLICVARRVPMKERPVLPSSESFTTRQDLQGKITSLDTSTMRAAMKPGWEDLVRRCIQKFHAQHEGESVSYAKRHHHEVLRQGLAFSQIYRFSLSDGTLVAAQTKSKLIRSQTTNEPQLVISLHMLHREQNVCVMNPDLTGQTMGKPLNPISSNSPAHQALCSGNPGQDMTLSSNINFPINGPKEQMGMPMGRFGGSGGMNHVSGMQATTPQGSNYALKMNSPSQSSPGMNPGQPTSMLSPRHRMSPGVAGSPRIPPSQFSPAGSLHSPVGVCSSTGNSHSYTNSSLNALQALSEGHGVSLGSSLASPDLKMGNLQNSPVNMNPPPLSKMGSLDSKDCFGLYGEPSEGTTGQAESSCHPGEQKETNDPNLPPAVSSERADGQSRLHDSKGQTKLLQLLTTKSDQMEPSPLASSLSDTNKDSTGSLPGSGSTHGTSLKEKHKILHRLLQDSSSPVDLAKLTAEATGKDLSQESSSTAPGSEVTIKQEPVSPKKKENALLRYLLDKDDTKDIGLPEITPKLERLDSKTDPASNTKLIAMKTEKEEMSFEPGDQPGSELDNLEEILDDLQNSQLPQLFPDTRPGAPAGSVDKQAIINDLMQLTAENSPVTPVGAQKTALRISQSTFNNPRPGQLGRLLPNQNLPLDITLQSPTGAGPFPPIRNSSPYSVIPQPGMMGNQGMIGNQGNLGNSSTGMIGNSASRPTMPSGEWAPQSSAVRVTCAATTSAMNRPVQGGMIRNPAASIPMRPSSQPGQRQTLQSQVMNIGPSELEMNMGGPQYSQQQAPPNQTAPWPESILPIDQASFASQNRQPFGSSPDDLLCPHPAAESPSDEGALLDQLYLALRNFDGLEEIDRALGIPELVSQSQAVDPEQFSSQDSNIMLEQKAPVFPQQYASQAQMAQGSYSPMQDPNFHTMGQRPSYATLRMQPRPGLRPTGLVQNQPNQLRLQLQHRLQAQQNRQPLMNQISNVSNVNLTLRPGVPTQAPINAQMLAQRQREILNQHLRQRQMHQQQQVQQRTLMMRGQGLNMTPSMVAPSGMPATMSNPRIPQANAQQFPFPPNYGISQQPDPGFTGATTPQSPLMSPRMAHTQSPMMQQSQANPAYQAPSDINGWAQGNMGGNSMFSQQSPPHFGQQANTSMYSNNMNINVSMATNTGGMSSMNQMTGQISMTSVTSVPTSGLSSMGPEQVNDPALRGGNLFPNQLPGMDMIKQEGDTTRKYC
Chain of Cytochrome P450 3A4 (P08684 whole entry): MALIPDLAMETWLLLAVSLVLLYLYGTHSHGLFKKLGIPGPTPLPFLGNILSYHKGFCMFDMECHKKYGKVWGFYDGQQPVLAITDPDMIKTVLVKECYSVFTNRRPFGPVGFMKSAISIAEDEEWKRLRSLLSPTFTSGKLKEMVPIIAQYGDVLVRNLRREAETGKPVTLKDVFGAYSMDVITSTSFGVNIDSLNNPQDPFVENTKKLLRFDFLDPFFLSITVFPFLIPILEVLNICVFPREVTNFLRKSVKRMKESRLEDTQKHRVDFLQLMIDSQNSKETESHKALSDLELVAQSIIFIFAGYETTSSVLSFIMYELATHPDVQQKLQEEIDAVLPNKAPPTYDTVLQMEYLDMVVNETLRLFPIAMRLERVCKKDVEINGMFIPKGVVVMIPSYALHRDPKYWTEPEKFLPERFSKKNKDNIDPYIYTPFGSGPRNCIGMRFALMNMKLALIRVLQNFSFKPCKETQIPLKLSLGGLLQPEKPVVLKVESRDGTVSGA
Chain of Beta-2 adrenergic receptor (P07550 whole entry): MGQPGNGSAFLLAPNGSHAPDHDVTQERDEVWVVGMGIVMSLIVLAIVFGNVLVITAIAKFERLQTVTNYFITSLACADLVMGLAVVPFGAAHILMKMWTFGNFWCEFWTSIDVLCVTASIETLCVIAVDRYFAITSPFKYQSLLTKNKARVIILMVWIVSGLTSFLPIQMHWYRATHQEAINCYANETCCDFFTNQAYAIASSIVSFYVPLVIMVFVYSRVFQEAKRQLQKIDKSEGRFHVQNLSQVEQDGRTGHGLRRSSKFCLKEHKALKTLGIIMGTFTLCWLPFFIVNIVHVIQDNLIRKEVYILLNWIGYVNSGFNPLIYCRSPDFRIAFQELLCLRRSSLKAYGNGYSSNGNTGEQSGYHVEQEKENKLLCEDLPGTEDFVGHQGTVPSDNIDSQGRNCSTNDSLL

## CCCCn1c(=N)n(CC(=O)c2ccc(Br)s2)c2ccccc21
[1]
  IC50: 1.42 µM (active)
[2]
  AC50: 7.45 µM (active)
INS1
  AC50: 7.71 µM (active)
A-375
  AC50: 30.3 µM (active)

## CS(=O)(=O)c1nc(-c2ccc(Br)cc2)cc(-c2ccccc2)c1C#N
[3]
  AC50: 4.72 µM (active)
[4]
  IC50: 2.07 µM (active)
[5]
  AC50: 6.77 µM (active)
[6]
  EC50: > 79.4 µM (not active)
[7]
  EC50: 8.09 µM (active)
[8]
  EC50: 7.5 µM (active)

## CCCCOC(=S)NC(=O)c1sc2ccccc2c1Cl
Cytochrome P450 3A4
  AC50: inconclusive

## CC1CCN(S(=O)(=O)c2cccc(C(=O)NCc3cccs3)c2)CC1
Escherichia coli [9]
  AC50: 40.9 µM (active)
Escherichia coli [10]
  AC50: 106 µM (active)
[11]
  EC50: 2.96 µM (active)

## OC[C@@H]1O[C@@H](n2cnc3cncnc32)[C@@H](O)[C@H]1O
Cytochrome P450 3A4
  AC50: inconclusive

## O=S(=O)(Nc1cccc(-c2cn3cccnc3n2)c1)c1ccc(-c2ccccc2)cc1
HEK293 [12]
  IC50: 6.52 µM (active)
HEK293 [13]
  IC50: > 20 µM (inactive)
[14]
  EC50: 10.3 µM (active)
HEK293 [15]
  IC50: 6.98 µM (active)
HEK293 [16]
  IC50: 14.5 µM (active)
HEK293 [17]
  EC50: 8.6 µM (active)
[18]
  EC50: 4.33 µM (active)

## COc1cc2oc(=O)c(Br)c(C)c2c(OC)c1OC
[6]
  EC50: > 79.4 µM (not active)
[7]
  EC50: 10 µM (not active)
[8]
  EC50: 13 µM (inactive)

## C=CCNS(=O)(=O)c1cccc2cc(C(=O)O)c(O)cc12
Cytochrome P450 2D6
  AC50: 22.4 µM (inconclusive)
Cytochrome P450 3A4
  AC50: inconclusive

## C=CCN1C(=O)/C(=C/c2ccc(Br)s2)C(=O)NC1=S
Vero [19]
  CC50: 24.2 µM (active)

## Cc1ccc(S(=O)(=O)n2cccc2/C=C/[N+](=O)[O-])cc1
Vero [19]
  CC50: 9.49 µM (active)
Vero [20]
  IC50: > 25 µM (active)

## N=C(N)N/N=C/c1ccc(OCc2ccc(Cl)cc2)cc1
Beta-galactosidase
  IC50: > 66.6 µM (inactive)
[21]
  EC50: > 60 µM (inconclusive)
[22]
  EC50: 3.74 µM (active)
[23]
  EC50: 1.93 µM (active)
[24]
  EC50: > 38 µM (not active)
[25]
  EC50: 3.25 µM (active)
Bcl-2-related protein A1
  IC50: > 20 µM (inactive)
[26]
  EC50: > 150 µM (inactive)
[27]
  IC50: 12.4 µM (active)
[28]
  IC50: 13 µM (active)

## Cc1cc(C)n(CCC(=O)N/N=C/c2c(O)ccc3ccccc23)n1
Cells [29]
  EC50: > 350 µM (not active)
[30]
  EC50: 11 µM (active)
[31]
  EC50: 8.69 µM (active)
[32]
  EC50: 11 µM (active)
[2]
  AC50: 45.1 µM (active)
INS1
  AC50: 3.53 µM (active)
Escherichia coli [10]
  AC50: 40.1 µM (active)
A-375
  AC50: 52.3 µM (active)
Cells [33]
  EC50: 9.7 µM (active)

## Cc1ccccc1-c1ccc(/C=N/c2c(C)n(C)n(-c3ccccc3)c2=O)o1
[6]
  EC50: > 79.4 µM (not active)
[7]
  EC50: 47.6 µM (not active)
[8]
  EC50: > 79.4 µM (inactive)
